Laboratory results from PubChem BioAssay (NCI).
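Five compound concentrations were applied to cells in 96-well plates for 48 hours; endpoints were derived by simple linear interpolation of the resulting dose-response curve. Abbreviation: GI50, concentration required for 50% inhibition of growth. The concentration for full growth arrest is given as TGI.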 Where a SMILES comes first, the peptide text is derived from it. [ ]: non-standard residue; d: D form. ξ: configuration not given here. ξLac(3-iPr) = CC(C)CC(O)C(=O)O; NMeV = CN[CH](C(=O)O)C(C)C; NMeA = CN[CH](C)C(=O)O; βAla = NCCC(=O)O

How the values were obtained:
Test in all cases: growth of human tumour cells (NCI), 48 h
[1] = tested on: A498 renal
[2] = tested on: HOP-92 NSCLC
[3] = tested on: HT29 colon
[4] = tested on: K-562 leukemia
[5] = tested on: M14 melanoma
[6] = tested on: MDA-MB-231 breast
[7] = tested on: MDA-N
[8] = tested on: NCI-H23 lung
[9] = tested on: RPMI-8226 leukemia
[10] = tested on: SK-MEL-28 melanoma
[11] = tested on: UO-31 renal

CO/N=C\c1cc(O)c(O)c(/C=N/OC)c1
TGI [1]: > 100 µM
TGI [2]: > 100 µM
TGI [3]: > 100 µM
TGI [4]: > 100 µM
TGI [5]: > 100 µM
TGI [6]: > 100 µM
TGI [7]: > 100 µM
TGI [8]: 99.4 µM
TGI [9]: > 100 µM
TGI [10]: > 100 µM
TGI [11]: > 100 µM

O=C1C=CC(=O)c2c(O)c(Br)c(Br)c(O)c21
TGI [1]: 36.9 µM
TGI [2]: 4.18 µM
TGI [3]: 9.89 µM
TGI [4]: 1.75 µM
TGI [5]: 3.79 µM
TGI [6]: 7.43 µM
TGI [7]: 5.67 µM
TGI [8]: 13.3 µM
TGI [9]: 3.42 µM
TGI [10]: 4.91 µM
TGI [11]: 6.65 µM

C[C@]12CC[C@@H]3c4ccc(O)cc4CC[C@H]3[C@@H]1CC[C@@H]2OC(=O)CCc1ccccc1
TGI [1]: 32.6 µM
TGI [2]: 36.8 µM
TGI [3]: 40.7 µM
TGI [4]: 33.9 µM
TGI [5]: 37.8 µM
TGI [6]: 33.4 µM
TGI [7]: 52.9 µM
TGI [8]: 34.6 µM
TGI [9]: 35.6 µM
TGI [10]: 39.2 µM
TGI [11]: 33.8 µM

Cc1ccc(C2COc3cc(O)c(O)cc3C2)cc1 (centres undefined)
TGI [1]: 130 µM
TGI [3]: 149 µM
TGI [4]: 42.8 µM
TGI [8]: 65.6 µM
TGI [9]: 37.9 µM
TGI [10]: 32.8 µM
TGI [11]: 101 µM

COc1cc(C(=O)CC2OC(=O)C(Cl)=C2Cl)ccc1Cl (centres undefined)
TGI [1]: > 100 µM
TGI [2]: > 100 µM
TGI [3]: > 100 µM
TGI [4]: > 100 µM
TGI [5]: > 100 µM
TGI [8]: > 100 µM
TGI [9]: > 100 µM
TGI [10]: > 100 µM
TGI [11]: > 100 µM

O=C(c1ccccc1)C1C(c2ccccc2)N1S(=O)(=O)c1ccccc1 (centres undefined)
TGI [3]: > 100 µM
TGI [4]: > 100 µM
TGI [5]: > 100 µM
TGI [6]: > 100 µM
TGI [7]: > 100 µM
TGI [8]: > 100 µM
TGI [9]: > 100 µM
TGI [10]: > 100 µM
TGI [11]: > 100 µM

Cc1nc2[nH]ncn2c(=O)c1CCCl
TGI [1]: > 10 µM
TGI [3]: > 10 µM
TGI [4]: > 10 µM
TGI [5]: > 10 µM
TGI [6]: > 10 µM
TGI [7]: > 10 µM
TGI [8]: > 10 µM
TGI [9]: > 10 µM
TGI [10]: > 10 µM
TGI [11]: > 10 µM

N#C/C(=C\c1ccc(Br)cc1)n1nnc2cc(Cl)c(Cl)cc21
GI50 [1]: 1.78 µM
TGI [1]: 4.51 µM
GI50 [2]: 1.14 µM
TGI [2]: 3.79 µM
GI50 [3]: 2.18 µM
TGI [3]: 5.18 µM
GI50 [4]: 2.31 µM
TGI [4]: > 100 µM
GI50 [5]: 1.92 µM
TGI [5]: 5.03 µM
GI50 [6]: 2.31 µM
TGI [6]: 8 µM
GI50 [8]: 2.89 µM
TGI [8]: > 100 µM
GI50 [9]: 1.42 µM
TGI [9]: 4.38 µM
GI50 [10]: 1.84 µM
TGI [10]: 3.81 µM

CCC(C)C1NC(=O)C2CCCN2C(=O)C(CC(C)C)OC(=O)CCNC(=O)C(C)N(C)C(=O)C(C(C)C)N(C)C1=O (centres undefined) (cyclo([ξLac(3-iPr)]PI[NMeV][NMeA][βAla]); configuration not given here)
TGI [1]: 81.8 µM
TGI [2]: > 100 µM
TGI [3]: 43.7 µM
TGI [4]: > 100 µM
TGI [5]: 6.49 µM
TGI [6]: > 100 µM
TGI [7]: 17.3 µM
TGI [8]: > 71.6 µM
TGI [9]: 8.15 µM
TGI [10]: > 100 µM
TGI [11]: > 42 µM

O=C(c1ccccc1)c1nc2ccc(Cl)cc2c2c1CCCO2
TGI [3]: > 100 µM
TGI [4]: > 100 µM
TGI [5]: > 100 µM
TGI [8]: > 100 µM
TGI [9]: > 100 µM
TGI [10]: > 100 µM
TGI [11]: > 100 µM
